Results reported in PubChem BioAssay (NCI).
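Dose response: 5 concentrations. Exposure: 48 h. Format: 96-well plates. Endpoint: linear interpolation; highest concentration if not reached. TGI marks complete inhibition of growth.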

Experiments:
Assay in all cases: DTP human tumour cell line panel, 48 h
786-0 renal = test system: 786-0 renal
A498 renal = test system: A498 renal
A549 NSCLC = test system: A549 NSCLC
ACHN renal = test system: ACHN renal
CAKI-1 renal = test system: CAKI-1 renal
CCRF-CEM leukemia = test system: CCRF-CEM leukemia
COLO 205 colon = test system: COLO 205 colon
DU-145 prostate = test system: DU-145 prostate
EKVX NSCLC = test system: EKVX NSCLC
HCC-2998 colon = test system: HCC-2998 colon
HCT-116 colon = test system: HCT-116 colon
HCT-15 colon = test system: HCT-15 colon
HL-60(TB) leukemia = test system: HL-60(TB) leukemia
HOP-62 NSCLC = test system: HOP-62 NSCLC
HOP-92 NSCLC = test system: HOP-92 NSCLC
HS 578T breast = test system: HS 578T breast
HT29 colon = test system: HT29 colon
IGROV1 ovarian = test system: IGROV1 ovarian
K-562 leukemia = test system: K-562 leukemia
KM12 colon = test system: KM12 colon
LOX IMVI melanoma = test system: LOX IMVI melanoma
M14 melanoma = test system: M14 melanoma
MALME-3M melanoma = test system: MALME-3M melanoma
MCF7 breast = test system: MCF7 breast
MDA-MB-231 breast = test system: MDA-MB-231 breast
MDA-MB-435 = test system: MDA-MB-435
MDA-N = test system: MDA-N
MOLT-4 leukemia = test system: MOLT-4 leukemia
NCI-H226 lung = test system: NCI-H226 lung
NCI-H23 lung = test system: NCI-H23 lung
NCI-H460 lung = test system: NCI-H460 lung
NCI/ADR-RES ovarian = test system: NCI/ADR-RES ovarian
OVCAR-3 ovarian = test system: OVCAR-3 ovarian
OVCAR-4 ovarian = test system: OVCAR-4 ovarian
OVCAR-5 ovarian = test system: OVCAR-5 ovarian
OVCAR-8 ovarian = test system: OVCAR-8 ovarian
PC-3 prostate = test system: PC-3 prostate
RPMI-8226 leukemia = test system: RPMI-8226 leukemia
RXF 393 renal = test system: RXF 393 renal
SF-268 CNS = test system: SF-268 CNS
SF-295 CNS = test system: SF-295 CNS
SF-539 CNS = test system: SF-539 CNS
SK-MEL-28 melanoma = test system: SK-MEL-28 melanoma
SK-MEL-5 melanoma = test system: SK-MEL-5 melanoma
SK-OV-3 ovarian = test system: SK-OV-3 ovarian
SN12C renal = test system: SN12C renal
SNB-19 CNS = test system: SNB-19 CNS
SNB-75 CNS = test system: SNB-75 CNS
SR leukemia = test system: SR leukemia
SW-620 colon = test system: SW-620 colon
T-47D breast = test system: T-47D breast
TK-10 renal = test system: TK-10 renal
U251 CNS = test system: U251 CNS
UACC-257 melanoma = test system: UACC-257 melanoma
UACC-62 melanoma = test system: UACC-62 melanoma
UO-31 renal = test system: UO-31 renal
BT-549 breast = test system: BT-549 breast
SK-MEL-2 melanoma = test system: SK-MEL-2 melanoma

O=C(NO)c1ccc(C(=O)NO)cc1
TGI (786-0 renal): > 100 µM
TGI (A498 renal): > 100 µM
TGI (A549 NSCLC): > 100 µM
TGI (ACHN renal): > 100 µM
TGI (CAKI-1 renal): > 100 µM
TGI (CCRF-CEM leukemia): 83.1 µM
TGI (COLO 205 colon): > 100 µM
TGI (DU-145 prostate): > 100 µM
TGI (EKVX NSCLC): > 100 µM
TGI (HCC-2998 colon): 45.5 µM
TGI (HCT-116 colon): > 100 µM
TGI (HCT-15 colon): > 100 µM
TGI (HL-60(TB) leukemia): > 100 µM
TGI (HOP-62 NSCLC): > 100 µM
TGI (HOP-92 NSCLC): > 100 µM
TGI (HS 578T breast): > 100 µM
TGI (HT29 colon): > 100 µM
TGI (IGROV1 ovarian): > 100 µM
TGI (K-562 leukemia): > 100 µM
TGI (KM12 colon): > 100 µM
TGI (LOX IMVI melanoma): > 100 µM
TGI (M14 melanoma): > 100 µM
TGI (MALME-3M melanoma): 51.4 µM
TGI (MCF7 breast): > 100 µM
TGI (MDA-MB-231 breast): > 100 µM
TGI (MDA-MB-435): > 100 µM
TGI (MDA-N): > 100 µM
TGI (MOLT-4 leukemia): 92.9 µM
TGI (NCI-H226 lung): > 100 µM
TGI (NCI-H23 lung): > 100 µM
TGI (NCI-H460 lung): > 100 µM
TGI (NCI/ADR-RES ovarian): 26.2 µM
TGI (OVCAR-3 ovarian): > 100 µM
TGI (OVCAR-4 ovarian): > 100 µM
TGI (OVCAR-5 ovarian): > 100 µM
TGI (OVCAR-8 ovarian): > 100 µM
TGI (PC-3 prostate): > 100 µM
TGI (RPMI-8226 leukemia): > 100 µM
TGI (RXF 393 renal): > 100 µM
TGI (SF-268 CNS): > 100 µM
TGI (SF-295 CNS): > 100 µM
TGI (SF-539 CNS): > 100 µM
TGI (SK-MEL-28 melanoma): > 100 µM
TGI (SK-MEL-5 melanoma): > 100 µM
TGI (SK-OV-3 ovarian): 87.2 µM
TGI (SN12C renal): > 100 µM
TGI (SNB-19 CNS): > 100 µM
TGI (SNB-75 CNS): > 100 µM
TGI (SR leukemia): > 100 µM
TGI (SW-620 colon): > 100 µM
TGI (T-47D breast): > 100 µM
TGI (TK-10 renal): > 100 µM
TGI (U251 CNS): 35.7 µM
TGI (UACC-257 melanoma): > 100 µM
TGI (UACC-62 melanoma): > 100 µM
TGI (UO-31 renal): > 100 µM

COc1ccc(-c2nc3ncccn3c2-c2ccc(S(C)=O)cc2)cc1 (stereo unspecified)
TGI (786-0 renal): > 100 µM
TGI (A549 NSCLC): > 100 µM
TGI (ACHN renal): > 100 µM
TGI (BT-549 breast): > 100 µM
TGI (CAKI-1 renal): 65.4 µM
TGI (CCRF-CEM leukemia): > 100 µM
TGI (COLO 205 colon): > 100 µM
TGI (DU-145 prostate): > 100 µM
TGI (HCT-116 colon): > 100 µM
TGI (HCT-15 colon): > 100 µM
TGI (HL-60(TB) leukemia): > 100 µM
TGI (HOP-62 NSCLC): > 100 µM
TGI (HOP-92 NSCLC): > 100 µM
TGI (HS 578T breast): > 100 µM
TGI (HT29 colon): > 100 µM
TGI (IGROV1 ovarian): > 100 µM
TGI (K-562 leukemia): > 100 µM
TGI (KM12 colon): > 100 µM
TGI (LOX IMVI melanoma): > 100 µM
TGI (M14 melanoma): > 100 µM
TGI (MCF7 breast): > 100 µM
TGI (MDA-MB-231 breast): > 100 µM
TGI (MDA-MB-435): 53.8 µM
TGI (MDA-N): > 100 µM
TGI (MOLT-4 leukemia): > 100 µM
TGI (NCI-H23 lung): > 100 µM
TGI (NCI-H460 lung): > 100 µM
TGI (NCI/ADR-RES ovarian): > 100 µM
TGI (OVCAR-3 ovarian): > 100 µM
TGI (OVCAR-4 ovarian): > 100 µM
TGI (OVCAR-5 ovarian): > 100 µM
TGI (OVCAR-8 ovarian): > 100 µM
TGI (PC-3 prostate): > 100 µM
TGI (RPMI-8226 leukemia): > 100 µM
TGI (SF-268 CNS): > 100 µM
TGI (SF-295 CNS): > 100 µM
TGI (SF-539 CNS): > 100 µM
TGI (SK-MEL-2 melanoma): > 100 µM
TGI (SK-MEL-28 melanoma): > 100 µM
TGI (SK-MEL-5 melanoma): > 100 µM
TGI (SK-OV-3 ovarian): > 100 µM
TGI (SN12C renal): > 100 µM
TGI (SNB-19 CNS): > 100 µM
TGI (SNB-75 CNS): > 100 µM
TGI (SR leukemia): > 100 µM
TGI (SW-620 colon): > 100 µM
TGI (U251 CNS): > 100 µM
TGI (UACC-257 melanoma): > 100 µM
TGI (UACC-62 melanoma): > 100 µM
TGI (UO-31 renal): > 100 µM
